Results published in patent US20120087968A1, “Antimicrobial Packaging Material and Methods of Making and Using the Same” (CRYOVAC, INC., priority 2010, published 2012).

What was measured:
[1] = system: E. coli (strain ATCC 4157); assay: Nutrient broth study of LAE materials (aerobic plate count of E. coli culture); assay type: cell-based; details: 0.5 g in 50 mL E. coli broth culture; for Aerobe Count Trial 1 CFU/g / Aerobe Count Trial 1 Log CFU/g / Aerobe Count Trial 1 Mean Log CFU/g / Aerobe Count Trial 2 CFU/g / Aerobe Count Trial 2 Log CFU/g / Aerobe Count Trial 2 Mean Log CFU/g: 45° C.; for growth of bacteria: over the 48 hour time period
Protocol: A culture of Difco nutrient broth (available from Weber Scientific, Hamilton, N.J., United States of America) and E. coli (strain ATCC® 4157™ KWIK STIK™, available from MicroBioLogics, Inc., St. Cloud, Minn., United States of America) was prepared by adding 1 tube of the E. coli to 400 mL of broth medium and incubating overnight at 37° C. Particularly, sample 1 was the positive control, sample 2 contained 0.5 g LAE HCl, sample 3 contained 0.5 g LAE monolaurate, and Sample 4 was the negative control.
Samples 1-4 were incubated at 45° C. and the number of E. coli counts was determined by plating about 1.0 mL of each sample onto aerobic plate count 3M Petrifilm™ plates (available from 3M Microbiology Products, St. Paul, Minn., United States of America) at 0, 24, and 48 hour time points. The experiments were conducted in duplicate.

[2] = system: E. coli counts / microbial contamination in beef purge; assay: Beef purge study of LAE materials (aerobic plate count); assay type: cell-based; details: 0.5 g in 10 mL beef purge
Protocol: About 30 mL of purge was isolated from two beef tenderloin packages and transferred to three test tubes (10 mL/tube). As set forth in Table 5 below, 0.5 g LAE HCl was added to the purge in sample 5 and 0.5 g LAE monolaurate was added to the purge in sample 6. Sample 7 was the positive control and contained no LAE derivative.
The samples were mixed using a vortex mixer and E. coli counts were determined by plating about 1.0 mL on aerobic plate count 3M Petrifilm™ plates for time 0 readings. The test tubes were then stored in a refrigerator (4° C.) and E. coli counts were determined by plating about 1.0 mL on aerobic plate count 3M Petrifilm™ at 24 and 48 hours. As set forth in Table 6, below, both LAE HCl and LAE Monolaurate eliminated over 99% of the microbial contamination at the 24 and 48 hour time points.

With CCCCCCCCCCCC(=O)N[C@@H](CCCN=C(N)N)C(=O)OCC.Cl [LAE HCl, ethyl n-lauroyl-L-arginate hydrochloride salt] the “Aerobe Count Trial 1 CFU/g” value ([1]; 0 hrs) was 1 CFU/g, the “Aerobe Count Trial 1 Log CFU/g” value ([1]; 0 hrs) was 0.00 Log CFU/g and the “Aerobe Count Trial 1 Mean Log CFU/g” value ([1]; 0 hrs) was 0 Log CFU/g. The “Aerobe Count Trial 2 CFU/g” value ([1]; 0 hrs) was 1 CFU/g, the “Aerobe Count Trial 2 Log CFU/g” value ([1]; 0 hrs) was 0.00 Log CFU/g and the “Aerobe Count Trial 2 Mean Log CFU/g” value ([1]; 0 hrs) was 0 Log CFU/g. The “Aerobe Count Trial 1 CFU/g” value ([1]; 24 hrs) was 1 CFU/g, the “Aerobe Count Trial 1 Log CFU/g” value ([1]; 24 hrs) was 0.00 Log CFU/g and the “Aerobe Count Trial 1 Mean Log CFU/g” value ([1]; 24 hrs) was 0 Log CFU/g. The “Aerobe Count Trial 2 CFU/g” value ([1]; 24 hrs) was 1 CFU/g, the “Aerobe Count Trial 2 Log CFU/g” value ([1]; 24 hrs) was 0.00 Log CFU/g and the “Aerobe Count Trial 2 Mean Log CFU/g” value ([1]; 24 hrs) was 0 Log CFU/g. For the same compound, the “Aerobe Count Trial 1 CFU/g” value ([1]; 48 hrs) was 1 CFU/g, the “Aerobe Count Trial 1 Log CFU/g” value ([1]; 48 hrs) was 0.00 Log CFU/g and the “Aerobe Count Trial 1 Mean Log CFU/g” value ([1]; 48 hrs) was 0 Log CFU/g. The “Aerobe Count Trial 2 CFU/g” value ([1]; 48 hrs) was 1 CFU/g, the “Aerobe Count Trial 2 Log CFU/g” value ([1]; 48 hrs) was 0.00 Log CFU/g and the “Aerobe Count Trial 2 Mean Log CFU/g” value ([1]; 48 hrs) was 0 Log CFU/g. For the same compound, the growth of bacteria [1] was “no growth of bacteria”, the “% Reduction” value ([2]; 0 hrs) was 99.766% and the “Avg. CFU/g” value ([2]; 0 hrs) was less than 1.000E+02 CFU/g. The “Log CFU/g Mean” value ([2]; 0 hrs) was less than 2.00 Log CFU/g, the “% Reduction” value ([2]; 24 hrs at 4° C.) was 99.990% and the “Avg. CFU/g” value ([2]; 24 hrs at 4° C.) was less than 1.000E+02 CFU/g. The “Log CFU/g Mean” value ([2]; 24 hrs at 4° C.) was less than 2.00 Log CFU/g, the “% Reduction” value ([2]; 48 hrs at 4° C.) was 99.999% and the “Avg. CFU/g” value ([2]; 48 hrs at 4° C.) was less than 1.000E+02 CFU/g. The “Log CFU/g Mean” value ([2]; 48 hrs at 4° C.) was less than 2.00 Log CFU/g.

With CCCCCCCCCCCC(=O)N[C@@H](CCCNC(=N)N)C(=O)OCC.CCCCCCCCCCCC(=O)O [LAE monolaurate, ethyl n-lauroyl-L-arginate laurate complex] the “Aerobe Count Trial 1 CFU/g” value ([1]; 0 hrs) was 1 CFU/g, the “Aerobe Count Trial 1 Log CFU/g” value ([1]; 0 hrs) was 0.00 Log CFU/g and the “Aerobe Count Trial 1 Mean Log CFU/g” value ([1]; 0 hrs) was 0 Log CFU/g. The “Aerobe Count Trial 2 CFU/g” value ([1]; 0 hrs) was 1 CFU/g, the “Aerobe Count Trial 2 Log CFU/g” value ([1]; 0 hrs) was 0.00 Log CFU/g and the “Aerobe Count Trial 2 Mean Log CFU/g” value ([1]; 0 hrs) was 0 Log CFU/g. For the same compound, the “Aerobe Count Trial 1 CFU/g” value ([1]; 24 hrs) was 1 CFU/g, the “Aerobe Count Trial 1 Log CFU/g” value ([1]; 24 hrs) was 0.00 Log CFU/g and the “Aerobe Count Trial 1 Mean Log CFU/g” value ([1]; 24 hrs) was 0 Log CFU/g. For the same compound, the “Aerobe Count Trial 2 CFU/g” value ([1]; 24 hrs) was 1 CFU/g, the “Aerobe Count Trial 2 Log CFU/g” value ([1]; 24 hrs) was 0.00 Log CFU/g and the “Aerobe Count Trial 2 Mean Log CFU/g” value ([1]; 24 hrs) was 0 Log CFU/g. For the same compound, the “Aerobe Count Trial 1 CFU/g” value ([1]; 48 hrs) was 1 CFU/g, the “Aerobe Count Trial 1 Log CFU/g” value ([1]; 48 hrs) was 0.00 Log CFU/g and the “Aerobe Count Trial 1 Mean Log CFU/g” value ([1]; 48 hrs) was 0 Log CFU/g. The “Aerobe Count Trial 2 CFU/g” value ([1]; 48 hrs) was 1 CFU/g, the “Aerobe Count Trial 2 Log CFU/g” value ([1]; 48 hrs) was 0.00 Log CFU/g and the “Aerobe Count Trial 2 Mean Log CFU/g” value ([1]; 48 hrs) was 0 Log CFU/g. The growth of bacteria [1] was “no growth of bacteria”, the “% Reduction” value ([2]; 0 hrs) was 8.798% and the “Avg. CFU/g” value ([2]; 0 hrs) was 3.890E+04 CFU/g. For the same compound, the “Log CFU/g Mean” value ([2]; 0 hrs) was 4.59 Log CFU/g, the “% Reduction” value ([2]; 24 hrs at 4° C.) was 90.880% and the “Avg. CFU/g” value ([2]; 24 hrs at 4° C.) was 8.913E+04 CFU/g. The “Log CFU/g Mean” value ([2]; 24 hrs at 4° C.) was 4.95 Log CFU/g, the “% Reduction” value ([2]; 48 hrs at 4° C.) was 99.960% and the “Avg. CFU/g” value ([2]; 48 hrs at 4° C.) was 2.818E+03 CFU/g. For the same compound, the “Log CFU/g Mean” value ([2]; 48 hrs at 4° C.) was 3.45 Log CFU/g.
